Laboratory results taken from ChEMBL document CHEMBL1201862, “PubChem BioAssay data set” (2004).
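48-hour exposure; five concentrations; linearly interpolated endpoints. GI50 is the concentration that inhibits growth by half.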 The source made the active and inactive calls. Cut-off read from the data, not from the text of the source: active = GI50 up to about 1.1 µM and inactive = higher.

Experiments:
Test in all cases: inhibition of tumour cell growth, NCI panel, 48 h
[1] = system: A498
[2] = system: COLO 205
[3] = system: DU-145
[4] = system: HT-29
[5] = system: M14
[6] = system: MCF7
[7] = system: MDA-MB-231
[8] = system: MOLT-4
[9] = system: NCI-H23
[10] = system: NCI/ADR-RES
[11] = system: OVCAR-3
[12] = system: OVCAR-8
[13] = system: PC-3
[14] = system: SF-295
[15] = system: SW-620
[16] = system: UACC-257
[17] = system: ACHN
[18] = system: NCI-H460
[19] = system: SNB-19
[20] = system: HCC 2998

Measured: GI50

COc1cccc2c1-c1nc(N)c3c(OC)cccc3c1C2=O
inactive: [1] > 100 µM | [2] > 100 µM | [3] > 100 µM | [4] 28.8 µM | [5] > 100 µM | [6] > 100 µM | [7] 19.1 µM | [8] 53.5 µM | [9] 24.9 µM | [10] > 100 µM | [11] > 100 µM | [12] 85.5 µM | [13] > 100 µM | [14] > 100 µM | [15] > 100 µM | [16] > 100 µM

Cc1cc(Cc2cc(C)c(N)cc2N)c(N)cc1N
inactive: [1] > 100 µM | [17] > 100 µM | [2] > 100 µM | [3] > 100 µM | [4] > 100 µM | [5] > 100 µM | [6] > 100 µM | [7] > 100 µM | [8] 33.3 µM | [9] 28.2 µM | [18] 77.3 µM | [10] > 100 µM | [11] > 100 µM | [12] 94.4 µM | [13] > 100 µM | [14] > 100 µM | [19] > 100 µM | [15] > 100 µM | [16] > 100 µM

CC(C)[Si](OC1=C(C(=O)N(C)c2ccccc2Cl)CCC1)(C(C)C)C(C)C
inactive: [1] 15.6 µM | [17] 19.9 µM | [2] 17.8 µM | [3] 22 µM | [4] 15.3 µM | [5] 19 µM | [7] 16 µM | [8] 30.3 µM | [9] 15.7 µM | [18] 22.4 µM | [10] 16.2 µM | [11] 16.7 µM | [12] 17 µM | [14] 14.2 µM | [19] 15.8 µM | [15] 24 µM | [16] 19 µM

COc1cc(/C=C/C(=O)CC(=O)/C=C/c2ccc(OC(=O)CCCCC3CCSS3)c(OC)c2)ccc1OC(=O)CCCCC1CCSS1 (stereo unspecified)
inactive: [17] > 100 µM | [2] > 100 µM | [3] > 100 µM | [4] > 100 µM | [5] > 100 µM | [6] > 100 µM | [7] > 100 µM | [8] > 100 µM | [9] > 100 µM | [18] > 100 µM | [10] > 100 µM | [11] > 100 µM | [12] > 100 µM | [13] > 100 µM | [14] > 100 µM | [19] > 100 µM | [15] > 100 µM | [16] > 100 µM

O=C(O)/C(=C\c1ccc(O)cc1)c1cccc2ccccc12
inactive: [1] > 100 µM | [17] > 100 µM | [3] > 100 µM | [20] > 100 µM | [4] > 100 µM | [5] > 100 µM | [7] > 100 µM | [8] > 100 µM | [9] > 100 µM | [18] > 100 µM | [10] > 100 µM | [11] 64.4 µM | [12] > 100 µM | [13] > 100 µM | [14] > 100 µM | [19] > 100 µM | [15] > 100 µM | [16] > 100 µM

CCC(=O)OC1=C(c2ccccc2)Sc2ccc(Cl)cc2-n2cccc21
inactive: [2] > 10 µM | [3] > 10 µM | [20] > 10 µM | [4] 3.78 µM | [5] > 10 µM | [6] 7.21 µM | [7] 4.47 µM | [8] 7.71 µM | [9] 8.2 µM | [12] > 10 µM | [13] > 10 µM | [14] 9.62 µM | [15] 7.67 µM | [16] > 10 µM

O=c1cc(CC(O)(C(F)(F)Cl)C(F)(F)Cl)[nH]n1-c1ccccc1
inactive: [1] > 100 µM | [17] > 100 µM | [2] > 100 µM | [3] > 100 µM | [20] > 100 µM | [4] > 100 µM | [5] > 100 µM | [6] > 100 µM | [7] > 100 µM | [8] > 100 µM | [9] > 100 µM | [18] > 100 µM | [10] > 100 µM | [12] > 100 µM | [14] > 100 µM | [19] > 100 µM | [15] > 100 µM | [16] > 100 µM

NC1(CCNC(=O)c2ccccc2)CCN(C(=O)c2ccccc2)CC1
inactive: [17] > 100 µM | [2] 41.7 µM | [3] > 100 µM | [4] > 100 µM | [5] > 100 µM | [6] > 100 µM | [7] > 10 µM | [8] > 100 µM | [9] > 100 µM | [18] > 100 µM | [10] > 100 µM | [12] > 100 µM | [13] > 100 µM | [14] > 100 µM | [19] > 100 µM | [15] > 100 µM | [16] > 100 µM

COc1cc(/C=N/NC(=O)c2ccc(NC(C)=O)cc2OC)ccc1O
inactive: [1] 86.3 µM | [17] 38.9 µM | [2] 56.1 µM | [3] 69.5 µM | [4] > 100 µM | [5] > 100 µM | [6] > 100 µM | [8] > 100 µM | [9] 54.6 µM | [10] > 100 µM | [11] > 100 µM | [12] > 100 µM | [13] 43.5 µM | [14] 55 µM | [19] 74.3 µM | [15] > 100 µM

Clc1cccc(Cl)c1C1SCc2nc3ncccc3n21 (stereo unspecified)
inactive: [1] > 100 µM | [17] > 100 µM | [2] > 100 µM | [3] > 100 µM | [20] > 100 µM | [4] > 100 µM | [5] > 100 µM | [7] 19 µM | [8] 61.8 µM | [9] > 100 µM | [18] > 100 µM | [10] > 100 µM | [11] 44.1 µM | [12] > 100 µM | [13] > 100 µM | [14] > 100 µM | [19] > 100 µM | [15] > 100 µM | [16] > 100 µM

CCOC(=O)CC1NC(=O)CS1 (stereo unspecified)
inactive: [1] > 100 µM | [17] > 100 µM | [2] 4.39 µM | [20] > 100 µM | [4] > 100 µM | [5] > 100 µM | [8] > 100 µM | [9] > 100 µM | [18] 60.4 µM | [11] > 100 µM | [12] > 100 µM | [14] > 100 µM | [19] > 100 µM | [15] 15.9 µM | [16] > 100 µM

CC(C)(CN1CCCCC1)C(=O)/C=C/c1ccccc1
inactive: [1] 18.5 µM | [17] 25.8 µM | [2] 16.4 µM | [20] 14.7 µM | [4] 7.36 µM | [5] 18.7 µM | [8] 10.3 µM | [9] 15.1 µM | [18] 22.4 µM | [11] 6.07 µM | [12] 15.8 µM | [14] 15.5 µM | [19] 16.4 µM | [15] 11.6 µM | [16] 14.5 µM

O=C(c1ccccc1)C(c1ccccc1)C1(O)C(=O)Nc2ccccc21 (stereo unspecified)
inactive: [1] > 100 µM | [17] > 100 µM | [2] > 100 µM | [20] > 100 µM | [4] > 100 µM | [5] > 100 µM | [8] > 100 µM | [9] > 100 µM | [18] > 100 µM | [11] > 100 µM | [12] > 100 µM | [14] > 100 µM | [19] > 100 µM | [15] > 100 µM | [16] > 100 µM

O=C(O)c1cc(-c2ccccc2O)nc2ccccc12
inactive: [1] > 100 µM | [17] > 100 µM | [2] > 100 µM | [20] > 100 µM | [4] > 100 µM | [5] > 100 µM | [8] > 100 µM | [9] > 100 µM | [18] > 100 µM | [11] > 100 µM | [12] > 100 µM | [14] > 100 µM | [19] > 100 µM | [15] > 100 µM | [16] > 100 µM

c1ccc(C2=Nc3nc4ccccc4n3C(c3ccccc3)C2)cc1 (stereo unspecified)
inactive: [1] > 100 µM | [17] > 100 µM | [2] > 100 µM | [4] > 100 µM | [5] > 100 µM | [6] > 100 µM | [7] 70.6 µM | [8] > 100 µM | [9] > 100 µM | [18] > 100 µM | [10] > 100 µM | [11] > 100 µM | [12] > 100 µM | [13] > 100 µM | [14] 79.8 µM | [19] 44.8 µM | [15] > 100 µM | [16] > 100 µM

O=S(=O)(O)c1cccc2ccc(O)c(/N=N\c3ccc(S(=O)(=O)c4ccc(/N=N/c5c(O)ccc6cccc(S(=O)(=O)O)c56)cc4)cc3)c12
inactive: [17] > 100 µM | [2] > 100 µM | [3] > 100 µM | [4] > 100 µM | [5] > 100 µM | [7] > 100 µM | [8] > 100 µM | [9] > 100 µM | [10] > 100 µM | [11] > 100 µM | [12] > 100 µM | [13] > 100 µM | [14] > 100 µM | [19] > 100 µM | [15] > 100 µM | [16] > 100 µM
